As a reminder, the logD is the decadic logarithm of the distribution of all forms, ionised or not, between an organic phase and buffer at a given pH. One may read the Vd as a proportionality between amount in the body and measured concentration, not a real space. Read a high Vd as wide distribution into tissue. By clearance is commonly meant a measure of how efficiently the substance is removed, as volume per time. Lower therefore signals inefficient removal.

One data set is described as follows: in vitro. Particulars: human, liver microsomes. A general note: Liver microsomes are vesicles of endoplasmic reticulum, rich in cytochrome P450 enzymes.
The nature of data set [1]: Octanol-water distribution coefficient, log D at pH 7.4. Format: physicochemical.
A short description of data set [2]: Volume of distribution in rat at 5 mg/kg, iv administered as single dose. The class given is ADME, organism-based. Further details: dose 5 mg/kg, route intravenous. Particulars: in vivo.
The nature of data set [3]: Elimination half life in rat at 5 mg/kg, iv administered as single dose. Format: ADME, organism-based. Further details: dose 5 mg/kg, route intravenous. Particulars: in vivo, read-out: beta t1/2 (converted).
A short description of data set [4]: Plasma clearance in rat at 5 mg/kg, iv administered as single dose. The class given is ADME, organism-based. On the set-up: dose 5 mg/kg, route intravenous.

The molecule `CNCC[C@H](Oc1cccc2ccccc12)c1cccs1` [DULOXETINE] displayed a half-life in “in vitro” of over 2 h.

`Clc1cccc(OC(c2ccccn2)[C@H]2CCNC2)c1Cl` (some centres undefined) gave a half-life in the data set “in vitro” of over 2 h. Further, the logD in data set [1] was found to be 0.9.

`Cc1ccc(C(Oc2cccc(Cl)c2Cl)C2CCNCC2)cn1` (centres undefined) returned a half-life in the data set “in vitro” of over 2 h.

`Clc1cccc(OC(c2cccnc2)C2CCNCC2)c1Cl` (single isomer, unassigned; enantiomer 1): the Vd in data set [2] turned out to be 33 L/kg. The half-life in data set [3] was 2 h; in “in vitro”, over 2 h. The same molecule returned a logD in data set [1] of 1.2. Also, the clearance in data set [4] was determined as 180 mL/min/kg.

For the origin of these results see ChEMBL document CHEMBL1151858, “4-Piperidines and 3-pyrrolidines as dual serotonin and noradrenaline reuptake inhibitors: design, synthesis and structure-activity relationships” (Bioorg Med Chem Lett, 2009).
